The record followed here is patent US11202789B2, “Method of treating glycogen storage disease” (Viking Therapeutics, Inc., priority 2016, dated 2021).

The data set has as its system male ob/ob mice. Briefly: 9-week efficacy and safety study in male ob/ob mice. Type of data set: in vivo. The note with it: T3 100 nmole/kg/day SC. The method, then:
The objective of this study was to evaluate the efficacy and safety of Compound 2 treatment at doses of 3, 10, and 30 mg/kg/day for 9 weeks in male ob/ob mice. 3,3′,5-Triiodo-L-thyronine (T3) was used as a comparator in this study.
Methods: Seventy-eight adult male ob/ob mice were assigned to six different treatment groups (n=6-24/group). Animals were dosed daily with either vehicle [1% carboxymethylcellulose (CMC) in water, PO], T3 [(100 nmole/kg/day in aqueous solution, subcutaneous (SC)], or Compound 2 [3, 10 or 30 mg/kg/day in 1% CMC, PO]. Blood glucose and plasma cholesterol were measured weekly in all animals. Subsets of animals in the vehicle-treated and 30 mg/kg/day Compound 2-treated groups were sacrificed after 3, 6 and 9 weeks of treatment to analyze the temporal effects of Compound 2 on liver weight and liver triglyceride levels. Liver triglyceride levels, liver glycogen content, heart, liver and epididymal fat pad weights, and plasma clinical chemistry parameters were measured at sacrifice.

With `N[C@@H](Cc1cc(I)c(Oc2ccc(O)c(I)c2)c(I)c1)C(=O)O` [Compound T3, 3,3′,5-Triiodo-L-thyronine, reference compound], the ALT levels entry was “decreased”, the “increased plasma triglyceride levels” value is reported as approximately 56%, the plasma albumin levels result is given as “decreased” and the plasma calcium levels result is listed as “decreased”. The “total plasma protein levels” value is on record as “decreased”. Besides, the liver weight result (9 weeks) is reported as “lower”. The blood glucose levels entry (all time points, vs vehicle) is on record as “similar”. For the same compound, for the setting “at 9 weeks, vs vehicle”, the “total plasma cholesterol lower” value is approximately 66%. Also, for the setting “vs vehicle”, the “terminal liver glycogen levels” value is recorded as “similar” and the “terminal liver triglyceride levels” value is reported as “similar”.
